Experimental data as given in patent US4885309A, “Therapeutic treatment of leukotriene-mediated dermal inflammation by topical administration of 3,4-dihydro-2H-1-benzopyran derivatives” (Hoffmann-La Roche Inc., priority 1986, dated 1989).

Tests used:
[1] = tested on: leukotriene-induced vascular permeability; assay: Inhibition of leukotriene (LTD4)-induced vascular permeability by topical test compound, guinea pigs; format: in vivo, male guinea pigs (Hartley strain); conditions: for % Inhibition (± S.E.M.): guinea pig, topical 4 hours prior to LTD4 injection
Method: (§1) The test compound was administered to the same number of animals as before by applying one drop (50 microliters) directly on the skin surface of a 10% by weight solution of the test compound in dimethylsulfoxide (DMSO). This amounted to 5 mg of test compound per site of application. […] Evans blue dye (0.5% in saline) was then injected intravenously into each animal, using the same procedure describd for Part (a), above. After thirty minutes the animals were sacrificed, the dorsal skins were removed, and the extent of dye migration was measured as above. The effectiveness of the test compound was calculated as the Percent (%) Inhibition of Leukotriene-Induced Permeability, as follows: [formula] where MWS=mean wheal size.

[2] = tested on: leukotriene-induced vascular permeability; assay: Inhibition of leukotriene (LTD4)-induced vascular permeability by topical test compound, rats; format: in vivo, male rats (Sprague-Dawley strain); conditions: for % Inhibition (± S.E.M.): rat, topical 4 hours prior to LTD4 injection
Method: as §1

[3] = tested on: arachidonic acid-induced ear edema; assay: Mouse ear edema test (in vivo), arachidonic acid-induced; parameters: species or system CD-1 male mice; conditions: for % Inhibition (± S.E.M.): eight mice
Excerpt: Dermatol. 80: 48 (1983), and Humes, Opas and Bonney, "Arachidonic Acid Metabolites in Mouse Ear Edema". Advances in Inflammation Research, 11: 57 (1986).
CD-1 male mice weighing 15 to 25 g were employed, and they were designated as follows: (1) Control Group, in which no arachidonic acid or test compound were to be applied, (2) Arachidonic Acid-Treated Group, in which no test compound was to be applied, and (3) Treated Group, in which the test compound was to be applied first, followed by the application of arachidonic acid. The test compound was again racemic-6-acetyl-7-[5-(4-acetyl-3-hydroxy-2-propylphenoxy)pentyloxy]-3,4-dihydro-2H-1-benzopyran-2-carboxylic acid.
In the case of the Group (3) animals, the test compound, dissolved in acetone, was applied to the dorsal surface of the right ear of the mouse with a 25-microliter pipettor, with the dose of the test compound being varied as shown in Tables 3 and 4. After 0.5 hour in some cases and 4 hours in others, the arachidonic acid was topically applied in the same manner as above to the pretreated ear areas. In each case of arachidonic acid application, an amount of 0.5 mg dissolved in 25 microliters of acetone was used. Application was made topically to the dorsal surface of the right ear with a 25-microliter pipettor. After one hour, the mice were sacrificed by carbon dioxide inhalation. A 6 mm-diameter standard biopsy punch was used to obtain a uniform tissue sample from the ear of each mouse so treated, and the tissue samples were weighed to the nearest 0.1 mg. The percent inhibition of ear edema formation was calculated as follows: [formula]

## CCCc1c(OCCCCCOc2cc3c(cc2C(C)=O)CCC(C(=O)O)O3)ccc(C(C)=O)c1O (racemic) [test compound, 6-acetyl-7-[5-(4-acetyl-3-hydroxy-2-propylphenoxy)pentyloxy]-3,4-dihydro-2H-1-benzopyran-2-carboxylic acid]
[1]; 5.0% in DMSO
  % Inhibition (± S.E.M.): 11 ± 3%
[1]; 10.0% in DMSO
  % Inhibition (± S.E.M.): 33 ± 3%
[1]; 15.0% in DMSO
  % Inhibition (± S.E.M.): 43 ± 4%
[1]; 25.0% in DMSO
  % Inhibition (± S.E.M.): 49 ± 4%
[1]; guinea pigs, 5 mg per site (10% in DMSO) topical, time variation
  inhibition of leukotriene-induced vascular permeability: inhibited leukotriene-induced vascular permeability
[1]; guinea pigs, 5 mg per site (10% in DMSO) topical, LTD4 0.4 microgram per site
  time of peak activity (inhibition of leukotriene-induced vascular permeability): 2 to 4 h
[1]; guinea pigs, topical 4 hours prior to leukotriene injection
  inhibition of leukotriene-induced vascular permeability increase, variation of concentration: inhibited the leukotriene-induced vascular permeability increase in a dose-related manner
[2]; 2.5% in DMSO
  % Inhibition (± S.E.M.): 28 ± 4%
[2]; 5.0% in DMSO
  % Inhibition (± S.E.M.): 50 ± 6%
[2]; 10.0% in DMSO
  % Inhibition (± S.E.M.): 59 ± 6%
[2]; 25.0% in DMSO
  % Inhibition (± S.E.M.): 67 ± 5%
[2]; rats, relative to guinea pigs (2-4 hours), 5 mg per site (10% in DMSO) topical, LTD4 0.4 microgram per site
  time of peak activity (inhibition of leukotriene-induced vascular permeability): somewhat later
[2]; rats, 5 mg per site (10% in DMSO) topical, time variation
  inhibition of leukotriene-induced vascular permeability: inhibited leukotriene-induced vascular permeability
[2]; rats, topical 4 hours prior to leukotriene injection
  inhibition of leukotriene-induced vascular permeability increase, variation of concentration: inhibited the leukotriene-induced vascular permeability increase in a dose-related manner
[3]; 0.5 Hour Pretreatment, 0.1 mg applied topically in 25 μl acetone
  % Inhibition (± S.E.M.): 19 ± 10%
[3]; 0.5 Hour Pretreatment, 0.2 mg applied topically in 25 μl acetone
  % Inhibition (± S.E.M.): 21 ± 12%
[3]; 0.5 Hour Pretreatment, 0.5 mg applied topically in 25 μl acetone
  % Inhibition (± S.E.M.): 42 ± 12%
[3]; 0.5 Hour Pretreatment, 1.0 mg applied topically in 25 μl acetone
  % Inhibition (± S.E.M.): 63 ± 4%
[3]; 0.5 Hour Pretreatment, 2.0 mg applied topically in 25 μl acetone
  % Inhibition (± S.E.M.): 65 ± 1%
[3]; 4 Hour Pretreatment, 0.1 mg applied topically in 25 μl acetone
  % Inhibition (± S.E.M.): 26 ± 9%
[3]; 4 Hour Pretreatment, 0.2 mg applied topically in 25 μl acetone
  % Inhibition (± S.E.M.): 31 ± 12%
[3]; 4 Hour Pretreatment, 0.5 mg applied topically in 25 μl acetone
  % Inhibition (± S.E.M.): 28 ± 9%
[3]; 4 Hour Pretreatment, 1.0 mg applied topically in 25 μl acetone
  % Inhibition (± S.E.M.): 37 ± 7%
[3]; 4 Hour Pretreatment, 2.0 mg applied topically in 25 μl acetone
  % Inhibition (± S.E.M.): 68 ± 7%
[3]; amounts up to 2 mg, both 0.5 and 4 hours prior to arachidonic acid application
  inhibition of edema: significant inhibition of edema
